Measured values from patent US3935309A, “Synergistic combinations of phosphonomycin and bacteriostatic agents” (Merck & Co., Inc., priority 1974, dated 1976).
Where “and” joins values, the source holds several entries; their conditions need not be identical. Equal entries are not always repeated.

Columns and labels:
[1] = tested on: Klebsiella pneumoniae; assay: MIC by two-fold serial broth dilution, alone and in combination (Example 1); assay type: cell-based
Method: (§1) The MIC (minimum inhibitory concentration) of phosphonomycin and each of the other antibiotics by itself was determined before the combination synergy experiment was begun, as follows: 2 ml. of a double strength solution in sterile distilled water of the highest strength to be tested (usually 1000γ) was added to a tube of double strength nutrient broth (NB) and mixed thoroughly. Two-fold serial dilutions were then made by transferring 2 ml. to the next tube (1 × NB) and so on for approximately 12 tubes. The tubes were inoculated with one drop each of a 1:50 dilution of a culture adjusted to a Lumetron 60 reading in NB + 0.2% yeast extract so as to provide a concentration of cells of approximately 25,000/ml. The tubes were then incubated at 37°C. and examined for growth at 24, 48 and 72 hours.
(§2) In the combination experiment, the MIC value obtained as described above was used as approximately the midpoint of the range to be tested for each of the two antibiotics of the combination. In a manner similar to the above, two-fold dilutions of the first substance in the combination were made except that 1.8 ml. volumes were used and a 2.2 × strength solution of both the antibiotic and the NB were made. The second antibiotic of the combination was added to duplicate rows of serial dilutions of the first substance as follows: 0.2 ml. in NB of a [formula] and a [formula] respectively, of the second substance was added to each tube in a row of serial dilutions of the first antibiotic. The final concentration that resulted enabled the determination of the effect of both MIC/4 and MIC/8 of each substance in the presence of from approximately 32 MIC to [formula] of the other. Inocula were added as in the initial single MIC experiment.

[2] = tested on: Proteus vulgaris; assay: as above; assay type: cell-based
Method: as §1, §2

[3] = tested on: Pseudomonas aeruginosa; assay: as above; assay type: cell-based
Method: as §1, §2

[4] = tested on: Pseudomonas stutzeri; assay: as above; assay type: cell-based
Method: as §1, §2

[5] = tested on: Staphylococcus aureus; assay: as above; assay type: cell-based
Method: as §1, §2

[6] = tested on: Streptococcus faecalis; assay: as above; assay type: cell-based
Method: as §1, §2

[7] = tested on: test organisms of Example 1; assay: Summary of the twelve combination synergy tests (Example 1); assay type: cell-based
Method: as §1
In the combination experiment, the MIC value obtained as described above was used as approximately the midpoint of the range to be tested for each of the two antibiotics of the combination. In a manner similar to the above, two-fold dilutions of the first substance in the combination were made except that 1.8 ml. volumes were used and a 2.2 × strength solution of both the antibiotic and the NB were made. […]

[8] = tested on: Staphylococcus aureus; assay: criss-cross MIC method in nutrient broth (Example 2); assay type: cell-based; settings: 2nd substance chloramphenicol (CLM)
Method: This method involved the simultaneous determination of the MIC (minimum inhibitory concentration) of each member of a pair of antibiotics and of combinations of the two in nutrient broth (NB) containing 0.2% yeast extract (YE). Serial two-fold dilutions were made throughout the experiment, and the starting inoculum consisted of approximately 25,000 cells/ml. of Staphylococcus aureus. Incubation was at 37°C. for 24 hours. Identical experiments were performed on two different days.

[9] = tested on: Escherichia coli 2017; assay: Combined antibiotic therapy of Escherichia coli infection in mice (Example 5); assay type: in vivo, mice infected with Escherichia coli 2017
Text: (§3) For example, using Escherichia coli 2017 as the infecting agent, sodium phosphonomycin was titrated alone and in the presence 5 and also in the presence of 0.5γtetracycline, while tetracycline was titrated alone and in the presence of 50γ, and also in the presence of 5γof sodium phosphonomycin. The two drugs were given by the subcutaneous route at separate sites on the ventral surface of the mouse. Such therapy was given only at the time of infection for the Escherichia coli and Pseudomonas aeruginosa tests but both at the time of infection and 6 hours later for all other tests. Infection was given intraperitoneally using broth suspensions of the test organism.

[10] = tested on: Streptococcus pyogenes 3009; assay: Combined antibiotic therapy of experimental infection in mice (Example 5); assay type: in vivo, mice infected with Streptococcus pyogenes 3009; settings: 6 LD50
Text: as §3

[11] = tested on: Pseudomonas aeruginosa 3210; assay: as above; assay type: in vivo, mice infected with Pseudomonas aeruginosa 3210; settings: 10 LD50
Text: as §3

[12] = tested on: Klebsiella pneumoniae "B"; assay: as above; assay type: in vivo, mice infected with Klebsiella pneumoniae "B"; settings: 7 LD50
Text: as §3

[13] = tested on: pathogenic bacteria; assay: in vitro combination tests with various pathogens (general description); assay type: cell-based
Text: Other experimental results have shown that novobiocin, chlortetracycline and sulfisoxazole are potentiated when combined with phosphonomycin and tested with various strains of pathogenic bacteria.

[14] = tested on: Streptococcus faecalis; assay: MIC by two-fold serial broth dilution, alone and in combination (Example 1); assay type: cell-based; settings: 2nd substance novobiocin; MIC/2 instead of ≤ MIC/4
[15] = chloramphenicol repeat test, 7 LD50, phosphonomycin titrated, chloramphenicol constant 5
[16] = chloramphenicol repeat test, 7 LD50, phosphonomycin titrated, chloramphenicol constant 50
[17] = chloramphenicol test 1, 9 LD50, phosphonomycin titrated, chloramphenicol constant 3
[18] = chloramphenicol test 1, 9 LD50, phosphonomycin titrated, chloramphenicol constant 30
[19] = tetracycline repeat test, 7 LD50, phosphonomycin titrated, tetracycline constant 1
[20] = tetracycline repeat test, 7 LD50, phosphonomycin titrated, tetracycline constant 10
[21] = tetracycline test 1, 9 LD50, alone
[22] = tetracycline test 1, 9 LD50, phosphonomycin titrated, tetracycline constant 0.5
[23] = tetracycline test 1, 9 LD50, phosphonomycin titrated, tetracycline constant 5
[24] = alone, therapy at 0 and 6 hours, phosphonomycin as sodium salt
[25] = phosphonomycin titrated, novobiocin constant 100
[26] = phosphonomycin titrated, novobiocin constant 1000

`C[C@@H]1O[C@@H]1P(=O)(O)O` [Phosphonomycin, (-) (cis-1,2-epoxypropyl)phosphonic acid] was tested, and the “Phosphonomycin MIC in presence of ≤ MIC/4 of 2nd substance” value ([1]; 2nd substance novobiocin) was 5.8, the MIC ([1]; Klebsiella pneumoniae, alone, read-out: Phosphonomycin MIC) was 750 µg/mL and the Phosphonomycin MIC in presence of 2nd substance ([2]; 2nd substance chlortetracycline, MIC/2 instead of ≤ MIC/4) was 24 µg/mL. The “Phosphonomycin MIC in presence of ≤ MIC/4 of 2nd substance” value ([2]; 2nd substance erythromycin) was 96, the “Phosphonomycin MIC in presence of ≤ MIC/4 of 2nd substance” value ([2]; 2nd substance novobiocin) was 6.8 and the “Phosphonomycin MIC in presence of ≤ MIC/4 of 2nd substance” value ([3]; 2nd substance erythromycin) was 12. For the same compound, the “Phosphonomycin MIC in presence of ≤ MIC/4 of 2nd substance” value ([3]; 2nd substance novobiocin) was 93.6, the “Phosphonomycin MIC in presence of ≤ MIC/4 of 2nd substance” value ([4]; 2nd substance novobiocin) was 16 and the MIC ([4]; Stutzerimonas stutzeri, read-out: Phosphonomycin MIC) was greater than 220 µg/mL. For the same compound, the “Phosphonomycin MIC in presence of ≤ MIC/4 of 2nd substance” value ([5]; 2nd substance erythromycin) was 24, the “Phosphonomycin MIC in presence of ≤ MIC/4 of 2nd substance” value ([5]; 2nd substance novobiocin) was 48 and the “Phosphonomycin MIC in presence of ≤ MIC/4 of 2nd substance” value ([6]; 2nd substance chlortetracycline) was 48. The “Phosphonomycin MIC in presence of ≤ MIC/4 of 2nd substance” value ([6]; 2nd substance erythromycin) was 192, the MIC ([6]; Enterococcus faecalis, alone, read-out: Phosphonomycin MIC) was 93.6 µg/mL and the “Phosphonomycin MIC” value ([6]; alone, in µg/mL) was 96 and 48. The “antagonism by the combination of antibiotics” value [7] was “in no case was there any evidence of antagonism”, the “tests in which potentiating effect of phosphonomycin is observed” value [7] was “eight of the twelve tests” and the “Phosphonomycin MIC in presence of MIC/4 of 2nd subst.” value [8] was 15.6 µg/mL and 7.8 µg/mL. For the same compound, the “% ED50” value ([9]; chloramphenicol repeat test, 7 LD50, alone) was 100%, the “s.c. ED50” value ([9]; chloramphenicol repeat test, 7 LD50, alone, single dose at 0 hour, phosphonomycin as sodium salt) was 276 µg and the “% ED50” value ([9]; chloramphenicol repeat test, 7 LD50, chloramphenicol titrated, phosphonomycin constant 5) was 2%. For the same compound, the “% ED50” value ([9]; chloramphenicol repeat test, 7 LD50, chloramphenicol titrated, phosphonomycin constant 50) was 19%, the “% ED50” value [9, 15] was 33% and the “s.c. ED50” value [9, 15] was 92 µg. The “% ED50” value [9, 16] was 9%, the “s.c. ED50” value [9, 16] was 26 µg and the “% ED50” value ([9]; chloramphenicol test 1, 9 LD50, alone) was 100%. The “s.c. ED50” value ([9]; chloramphenicol test 1, 9 LD50, alone, single dose at 0 hour, phosphonomycin as sodium salt) was 905 µg, the “% ED50” value ([9]; chloramphenicol test 1, 9 LD50, chloramphenicol titrated, phosphonomycin constant 10) was 1% and the “% ED50” value ([9]; chloramphenicol test 1, 9 LD50, chloramphenicol titrated, phosphonomycin constant 100) was 11%. The “% ED50” value [9, 17] was 100%, the “s.c. ED50” value [9, 17] was 905 µg and the “% ED50” value [9, 18] was 55%. The “s.c. ED50” value [9, 18] was 500 µg, the “% ED50” value ([9]; tetracycline repeat test, 7 LD50, alone) was 100% and the “s.c. ED50” value ([9]; tetracycline repeat test, 7 LD50, alone, single dose at 0 hour, phosphonomycin as sodium salt) was 350 µg. For the same compound, the “% ED50” value [9, 19] was 108%, the “s.c. ED50” value [9, 19] was 380 µg and the “% ED50” value [9, 20] was 111%. The “s.c. ED50” value [9, 20] was 390 µg, the “% ED50” value ([9]; tetracycline repeat test, 7 LD50, tetracycline titrated, phosphonomycin constant 0.5) was 2% and the “% ED50” value ([9]; tetracycline repeat test, 7 LD50, tetracycline titrated, phosphonomycin constant 50) was 14%. For the same compound, the “% ED50” value [9, 21] was 100%, the “% ED50, Combined %” value [9, 21] was 100% and the “s.c. ED50” value ([9]; tetracycline test 1, 9 LD50, alone, single dose at 0 hour, phosphonomycin as sodium salt) was 1000 µg. For the same compound, the “% ED50” value [9, 22] was 100%, the “s.c. ED50” value [9, 22] was 1000 µg and the “% ED50” value [9, 23] was 43%. For the same compound, the “s.c. ED50” value [9, 23] was 427 µg, the “% ED50” value ([9]; tetracycline test 1, 9 LD50, tetracycline titrated, phosphonomycin constant 5) was “.5%” and the “% ED50” value ([9]; tetracycline test 1, 9 LD50, tetracycline titrated, phosphonomycin constant 50) was 5%. For the same compound, the “% ED50” value ([10]; alone) was 100%, the “% ED50, Combined %” value ([10]; alone) was 100% and the “s.c. ED50” value [10, 24] was 1400 µg. The “% ED50” value ([10]; tetracycline titrated, phosphonomycin constant 500) was 64%, the “% ED50” value ([10]; tetracycline titrated, phosphonomycin constant 1000) was 71% and the “% ED50” value ([11]; alone) was 100%. The “s.c. ED50” value ([11]; alone, therapy at 0 hour only, phosphonomycin as sodium salt) was 1420 µg, the “% ED50” value [11, 25] was 88% and the “s.c. ED50” value [11, 25] was 1250 µg. The “% ED50” value [11, 26] was 195%, the “s.c. ED50” value [11, 26] was 2760 µg and the “% ED50” value ([12]; alone) was 100%. For the same compound, the “s.c. ED50” value [12, 24] was 2130 µg, the “% ED50” value [12, 25] was 52% and the “s.c. ED50” value [12, 25] was 1110 µg. The “% ED50” value [12, 26] was 14%, the “s.c. ED50” value [12, 26] was 298 µg and the “tests in which phosphonomycin potentiated the effect of chloramphenicol” value ([13]; almost 200 pathogenic bacteria, about 15,000 individual tests) was 88%. The antagonism ([13]; between phosphonomycin and each of chloramphenicol and erythromycin) was “no antagonism”, the antagonism ([13]; various tests with human pathogens) was “does not exhibit any antagonism” and the synergism ([13]; with chloramphenicol, erythromycin, tetracyclines, novobiocin and sulfisoxazole, inhibition at one quarter or less of MIC of each) was “acts synergistically”. For the same compound, the Phosphonomycin MIC in presence of 2nd substance [14] was 24 µg/mL.
